The record followed here is patent US7285701B2, “Cyanobacterial nucleic acid fragments encoding proteins useful for controlling plant traits via nuclear or plastome transformation” (BASF Plant Science GmbH, priority 2001, dated 2007).

The test system of one assay is Anabaena AHAS. The assay can be described thus: In vitro AHAS assay. The class given is biochemical, Anabaena PCC7120. As to conditions: 100 μM. As for the experimental part: (§1) AHAS is the target site of both PURSUIT® imazethapyr and OUST® sulfometuron methyl herbicides. To determine if resistance to the herbicides is due to a natural resistance to inhibition of the acetohydroxyacid synthase enzymes from the cyanobacteria, or if it is due to alternative mechanisms (e.g. lack of entry into the cell), the in vitro activity of the AHAS enzyme in the presence of the herbicides was tested.
(§2) AHAS assays were performed with slight modification as described by Singh et. al (Singh B K, Stidham M A, Shaner D L, 1988, Assay for acetohydroxyacid synthase from plants. Anal Biochem 171: 173-179).
(§3) Synechocystis PCC6803 and Anabaena PCC7120 were cultured in 1.5 L of BG-11 media. Cells were collected by centrifuge and stored frozen at −80° C. Frozen cells were thawed and placed in a 30 mL Bead Beater cell disruptor chamber (BioSpec Corp Bartlesville, Okla.). Seven mL of acid washed sand was added. The chamber was filled with 2× ASHA assay buffer, consisting of 100 mM HEPES pH7.0, 200 mM pyruvate, 20 mM MgCl2, 2 mM TPP (Thiamine pyrophosphate) and 100 μM FAD (flavin adenine dinucleotide).
(§4) The Bead Beater cell disruptor was packed in ice and turned on for 10 seconds, followed by cooling for 3 minutes. This cycle was repeated five times. The extract was transferred into a centrifuge tube, and spun in a Beckman SA20 (Beckman, Fullerton, Calif.) rotor for 15 minutes at 17,000 rpms. […]

Another assay deals with Arabidopsis plants. Nature of the assay: Lethality to Arabidopsis plants in agar media. The class given is in vivo. How it is done:
(§5) In vivo testing of Synechocystis PCC6803 and Anabaena PCC7120 was done by culturing the organisms in varying concentrations of the commercial herbicides. […] For relative comparison purposes a concentration of 1 μM PURSUIT® imazethapyr in agar media is lethal to Arabidopsis plants.

The test system of assay [1] is AHAS enzyme of pACBC222 line G-981208-1.1. Nature of the assay: AHAS enzyme assay of transplastomic tobacco line. The assay is classed as biochemical. As to conditions: line sprayed with 18 g/ha PURSUIT imazethapyr; assay in the presence of the herbicide.
The subject of the next assay is Anabaena PCC7120. Nature of the assay: In vivo growth in BG-11 media with commercial herbicides. The class given is cell-based. As to conditions: 100 μM, one week of culture in BG-11 media. As for the experimental part: (§6) In vivo resistance of cyanobacteria to PURSUIT® imazethapyr and OUST® sulfometuron methyl. As a preliminary matter, Synechocystis PCC6803 and Anabaenia PCC7120 were tested for susceptibility to PURSUIT® imazethapyr and OUST® sulfometuron methyl. AHAS genes which are resistant to these herbicides are excellent candidates for transformation in plant plastomes and nuclear genomes. Such transformants can be used in a weed control strategy using a combination of transgenic herbicide resistant crops and herbicides.
as §5

The subject of the next assay is Synechocystis PCC6803. Described as above. As to conditions: 100 μM, one week of culture in BG-11 media. The assay is classed as cell-based. How it is done: as §6, §5
Another assay has as its system Synechocystis AHAS. Nature of the assay: In vitro AHAS assay. The assay is classed as biochemical, Synechocystis PCC6803. The note with it: 100 μM. As for the experimental part:
as §1, §2, §3, §4

Assay [2] has as its system E. coli M1262 expressing the cyanobacterial ahas gene. Nature of the assay: Growth on minimal media of E. coli M1262 expressing the cyanobacterial ahas gene. The assay is classed as cell-based. From the text: To confirm that these plasmids carry functional AHAS sequences, plasmid DNA from each of the ten rescued colonies was transformed into the E. coli strain M1262. (leuB6, ilv1614, ilvH612, λ^−, relA1, spoT1, ilvB619, ilvG603, ilfG605(am), thi-1) (Genetics Stock Center, Yale University). This strain of E. coli is lacking in AHAS. […] The ahas gene can therefore be used for achieving herbicide tolerance in crops by transformation into the nuclear or plastidic genome.

The subject of a further assay is p116 line G-981208-1.1. The assay can be described thus: PURSUIT imazethapyr spray test, p116 line. The class given is in vivo, tobacco. As for the experimental part:
(§7) Observations and photos (FIG. 8) of the PURSUIT® imazethapyr spray test were taken 5 weeks after the test was conducted. […] Leaves assumed a thin, spiny form.

The next assay concerns Wild type (W-38) tobacco. Nature of the assay: PURSUIT imazethapyr spray test, wild type tobacco. The class given is in vivo. The note with it: 18 g/ha, 5 weeks after the test. How it is done: as §7
For assay [3], the system named is p111 and p112 transplastomic tobacco lines. Nature of the assay: PURSUIT imazethapyr spray test, p111 and p112 lines. The assay is classed as in vivo. As to conditions: 18 g/ha, 5 weeks after the test. How it is done:
as §7

Consider `CCc1cnc(C2=NC(C)(C(C)C)C(=O)N2)c(C(=O)O)c1` (stereo not shown) [PURSUIT® imazethapyr, imazethapyr], for which the “inhibition of AHAS enzyme” value in the assay on Anabaena AHAS and in the assay with Synechocystis AHAS was “No significant inhibition” in each case. Moreover, the “concentration lethal to Arabidopsis plants” value in the assay on Arabidopsis plants is 1 µM. Moreover, in [1], the “increase in AHAS enzyme resistance compared with AHAS enzyme from unsprayed wild type tobacco” value is roughly 20%. The inhibition of growth entry in the assay with Anabaena PCC7120 and in the assay with Synechocystis PCC6803 was “No inhibition of growth” each time. Besides, in assay [2], the “growth on minimal media in the presence of the herbicide” value is given as “capable of growing”. For the same molecule, the growth result with p116 line G-981208-1.1 (18 g/ha, 5 weeks after the test) is “uninhibited”; in the assay with p116 line G-981208-1.1 (35 g/ha, 5 weeks after the test), “slight stunting”. The leaf damage entry in the assay on p116 line G-981208-1.1 (18 or 35 g/ha, 5 weeks after the test) is reported as “no visible leaf damage”. Also, the “effect on new shoots and morphology” value in the assay on p116 line G-981208-1.1 (p116 line, prolific shooting and morphological abnormalities in new shoots) is listed as “strong growth regulator”. In addition, the spray test observation result in the assay with Wild type (W-38) tobacco is “wide-spread leaf necrosis and stunting of growth”; in assay [3] it was “wide-spread leaf necrosis and stunting of growth”.
